The values that follow come from patent US20100292325A1, “P-MENTHAWE-3-CARBOXYLIC ACID ESTERS TO TREAT AIRWAYS DISEASES” (priority 2007, published 2010).

The test system of data set [1] is oropharynx (back of the mouth). In words: Bioassay: compound applied by glass rod onto the posterior dorsal tongue, oral sensations noted. Format: in vivo, human. As to conditions: for sensation from the oral cavity: 2 mg on the posterior third of the tongue; for cooling qualities: in vivo. As for the experimental part: CPS-004 and CPS-030 are liquids at room temperatures. These compounds were tested by placing 0, 2, 5 and 8 mg on a 6-inch glass rod and applying these compounds onto the posterior third of the dorsal surface of the tongue. After depositing the test substance, the subject was instructed to keep the mouth closed and allow the test substance to distribute to the back of the mouth (orpharynx). The presence and duration of sensations from the oral cavity was then noted.

The target of data set [2] is TRP-M8 (Homo sapiens, UniProt Q7Z2W7). The settings on record: cited from earlier work.
The subject of data set [3] is skin. The settings on record: in vivo; cited from earlier work.

Chain of TRP-M8 (Q7Z2W7 whole entry, species assumed): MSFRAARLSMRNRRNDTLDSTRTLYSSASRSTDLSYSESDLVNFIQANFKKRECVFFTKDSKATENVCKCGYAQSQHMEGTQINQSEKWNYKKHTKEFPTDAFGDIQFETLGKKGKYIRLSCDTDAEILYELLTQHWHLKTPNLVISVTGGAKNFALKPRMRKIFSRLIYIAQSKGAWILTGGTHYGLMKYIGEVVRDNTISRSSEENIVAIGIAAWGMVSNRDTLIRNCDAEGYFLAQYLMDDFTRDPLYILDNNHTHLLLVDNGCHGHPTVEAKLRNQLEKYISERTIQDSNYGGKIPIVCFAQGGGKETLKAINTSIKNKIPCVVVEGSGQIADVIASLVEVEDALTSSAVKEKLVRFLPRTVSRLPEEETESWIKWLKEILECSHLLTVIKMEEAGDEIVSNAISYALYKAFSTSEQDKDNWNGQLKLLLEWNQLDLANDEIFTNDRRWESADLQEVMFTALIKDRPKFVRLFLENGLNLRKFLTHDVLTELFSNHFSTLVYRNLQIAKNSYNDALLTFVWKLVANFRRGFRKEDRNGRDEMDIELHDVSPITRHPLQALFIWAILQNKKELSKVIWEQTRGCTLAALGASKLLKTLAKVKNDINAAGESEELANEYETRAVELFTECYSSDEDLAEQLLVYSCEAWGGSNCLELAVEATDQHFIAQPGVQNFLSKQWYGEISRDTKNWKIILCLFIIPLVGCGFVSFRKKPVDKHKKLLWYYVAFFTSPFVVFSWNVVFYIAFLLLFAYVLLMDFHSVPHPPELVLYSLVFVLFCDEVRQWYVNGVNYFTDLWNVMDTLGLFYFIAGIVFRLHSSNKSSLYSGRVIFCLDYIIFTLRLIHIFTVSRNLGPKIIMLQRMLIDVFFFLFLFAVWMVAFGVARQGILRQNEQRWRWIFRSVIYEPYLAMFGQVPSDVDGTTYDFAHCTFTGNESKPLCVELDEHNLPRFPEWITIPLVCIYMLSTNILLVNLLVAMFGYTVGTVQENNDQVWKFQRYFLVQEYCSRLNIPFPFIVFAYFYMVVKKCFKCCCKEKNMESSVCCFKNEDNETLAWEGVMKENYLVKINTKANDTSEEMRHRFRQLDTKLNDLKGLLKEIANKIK

For `CC(C)[C@@H]1CC[C@@H](C)C[C@H]1C(=O)OCC(O)CO` (stereo partly shown) [CPS-030], in data set [1], the “sensation from the oral cavity” value was “cooling effect on the back of the mouth” and the cooling qualities entry is recorded as “good cooling qualities”. Besides, in data set [1] (applied onto the tongue), the taste entry was “acrid taste which was objectionable”.
As for `CC(C)[C@@H]1CC[C@@H](C)C[C@H]1C(=O)OCCO` [CPS-004], in data set [1], the “sensation from the oral cavity” value is given as “cooling effect on the back of the mouth” and the cooling qualities result is reported as “good cooling qualities”.
Consider `COc1ccc(NC(=O)[C@@H]2C[C@H](C)CC[C@H]2C(C)C)cc1` [WS-12], for which the “potency on TRP-M8 relative to menthol” value in data set [2] was 2000 times. Also, the “cooling action on the skin” value in data set [3] is recorded as “does not produce very much cooling action on the skin”.
